Results published in patent US20070104811A1, “Pharmaceutical composition useful for the treatment of prostate cancer” (priority 2005, published 2007).

Key:
[1] = system: neonatal skeletal muscle cell; assay: Cell viability of control cells: neonatal skeletal muscle cell; type: cell-based, rat; details: 100 μg/ml M. koenigii + 100 μg/ml T. terrestris, total 200 μg/ml; 96 h
Protocol: The skeletal muscles from 2-day-old neonatal rat were isolated by method described previously by William E Russell (1997) with modifications. Briefly, Soleus muscle were dissected, minced and digested with 0.2% Type II Collagenase and 0.05% trypsin in Phosphate buffered Saline (PBS) pH 7.4, 0.15M NaCl. The dispersed skeletal muscle cells were centrifuged (1000 g, 10 minutes) washed and resuspended in Phosphate buffered Saline (PBS) with 1% antibiotic-antimycotic. Cells were preincubated for 30 minutes at 37° C., 95% air/5%CO2. The floating muscle cells were plated on collagen coated T-25 flaks in Dulbecco's modified Eagle Medium enriched with 10% Fetal. Bovine Serum and 1% antibiotic-antimycotic
Viability of PC-3 after treatment as at the indicated times was determined by MTT assay -Cell titre 96 AQoueus One solution Cell Proliferation Assay (Promega, Corp. Madison, Wis.) as per manufacturer's protocol. Briefly, 10,000 cells were plated in triplicate in 96 well plates and incubated for 12 hours in complete media. Compound MK-3 was added as indicated on replacing them to fresh complete media and incubated upto 96 hours for varied time periods. 20 μl per well of cell titre 96 AQoueus One solution reagent. […] Absorbance was recorded at 490 nm with 96 well plate readers. Reference wavelength of 630 nm was used to reduce background contributed by non-specific absorbance due to cell debris.

[2] = system: hepatocyte; assay: Cell viability of control cells: neonatal hepatocyte; type: cell-based, rat; details: 100 μg/ml M. koenigii + 100 μg/ml T. terrestris, total 200 μg/ml; 96 h
Protocol: The hepatocytes from 2-day-old neonatal rat were isolated by method described previously by William E Russell (1997) with modifications. Briefly, the livers were perfused through the portal vein with a calcium-free solution consisting of 150 mM NaCl, 2.8 mM KCl, 5.5 mM glucose, and 25 mM HEPES (pH 7.6) for 10 min, followed by mincing and digestion in DMEM containing 0.05% collagenase type IV for 30 minutes. The cells were centrifuged (2000 g, 10 minutes) and dispersed in DMEM enriched with 10% fetal Bovine Serum, 1% antibiotic-antimycotic.
(§1) Viability of PC-3 after treatment as at the indicated times was determined by MTT assay -Cell titre 96 AQoueus One solution Cell Proliferation Assay (Promega, Corp. Madison, Wis.) as per manufacturer's protocol. Briefly, 10,000 cells were plated in triplicate in 96 well plates and incubated for 12 hours in complete media. Compound MK-3 was added as indicated on replacing them to fresh complete media and incubated upto 96 hours for varied time periods. 20 μl per well of cell titre 96 AQoueus One solution reagent. Incubate the plate for 1-4 hours at 37° C. and humidified 5% CO2 atmosphere. Absorbance was recorded at 490 nm with 96 well plate readers. Reference wavelength of 630 nm was used to reduce background contributed by non-specific absorbance due to cell debris.

[3] = Acute toxicity as per WHO guidelines, haematological parameters; type: in vivo, Mice, Balb/C; details: mahanine 2 gm/kg body weight orally once, 15 days after treatment; vehicle control 92
Protocol: (§2) Experiments for acute toxicity are performed as per the guidelines of WHO. Experimental subject: Mice, Balb/C Male, female. 25 gms body weight (approx) 16 mice were divided into 2 groups 8 animals were received the dosage of @2 gm/kg body weight of combined extract. Equal volume of the vehicle (DMSO) were given to 8 animals wherein dose administered orally once and then animals sacrificed and haematological parameters checked 15 days after treatment.
as §2, with “compound” for “dosage of”, “weight.” for “weight of combined extract.”, “haematological and biochemical” for “haematological”

[4] = system: cardiomyocyte; assay: Cell viability of control cells: neonatal cardiomyocyte; type: cell-based, rat; details: 100 μg/ml M. koenigii + 100 μg/ml T. terrestris, total 200 μg/ml; 96 h
Protocol: The cardiomyocytes from 2-day-old neonatal rat were isolated by the method previously described by Yoshihiro Kimura (1994) with modifications. Briefly, heart was excised and minced in pre warmed (37° C.) Ads buffer (1.2M NaCl, 198 mM HEPES, 54 mM KCl, 8.3 mM MgSO4, 55.4 mM glucose, 95 mM NaH2PO4), digested in typeII Collagenase 0.05% and Pancreatin in 3-succesive digestions of 15 minutes each. Supernatant was pooled and cells palleted at 2000 g, 10 minutes. Cells were resuspended and plated in collagen coated T-25 flaks in Medium-199 enriched with 10% Fetal Bovine Serum and 1% antibiotic-antimycotic.
as §1

Substance: mahanine
- toxic effects / cell death [1]: no sign of cell death
- toxic effects / cell death [2]: no sign of cell death
- WBC [3]: 89
- toxic effects / cell death [4]: no sign of cell death
